Structures can show the parent of a compound that is named as a salt. Where two headings read alike, the source gives them in different places.
Columns and labels:
[1] = test system: Trypanosoma brucei rhodesiense; test: In vitro anti-protozoan activity against T. b. r.; assay type: cell-based; conditions: for IC50: read-out: T.b.r. IC50; for in vitro activity (in words): against T. b. r. and P. f. (Table 1)
Description: The DNA binding studies and both the in vitro and in vivo antiprotozoan studies were performed as described by Ismail. M. A., et al., J. Med. Chem., 46, 4761-4769 (2003), which is incorporated herein by reference in its entirety. […]

Plasmodium falciparum = test: In vitro anti-protozoan activity against P. f.; assay type: cell-based; conditions: concentration that gives 50% growth inhibition, average of duplicate determinations, K = 1,000
Description: (§1) The DNA binding studies and both the in vitro and in vivo antiprotozoan studies were performed as described by Ismail. M. A., et al., J. Med. Chem., 46, 4761-4769 (2003), which is incorporated herein by reference in its entirety.

[2] = test system: T. b. r. (STIB900 acute infection); test: In vivo anti-trypanosomal activity in the STIB900 mouse model; conditions: for in vivo effectiveness on oral dosage (in words): STIB900 model; for Survival: average days of survival
Description: as §1
In this model five of the diamidines (8a, 8b, 7, 14b, 14a) give 4/4 cures and two, 13a and 14c, give 3/4 cures on intraperitoneal dosage. […] No attempts were made to optimize the formulation. […] One of ordinary skill in the art would appreciate that optimization of the formulation could improve the oral bioavailability of the prodrug.

Poly-(dA.dT)2 = test: DNA binding studies (ΔTm); conditions: DNA affinity
Description: as §1
Table 1 contains the results from the DNA binding studies for the new diamidines and the in vitro results for the compounds tested against T. b. r. and P. f. […] As a representative example of this class of compounds, compound 12 was evaluated and gave a ΔTm value of only 0.3.

[3] = Trypanosoma brucei, RHODESIENSE, concentration that gives 50% growth inhibition, average of duplicate determinations, K = 1,000
[4] = Mus musculus, 1440 h, po, 100 mg/kg, number of mice that survive and are parasite free for 60 days, read-out: Cures (converted)
[5] = Mus musculus, 1440 h, ip, 20 mg/kg, number of mice that survive and are parasite free for 60 days, read-out: Cures (converted)
[6] = Mus musculus, 1440 h, po, 75 mg/kg, number of mice that survive and are parasite free for 60 days, read-out: Cures
[7] = concentration that gives 50% growth inhibition, average of duplicate determinations, K = 1,000

Row | SMILES | IC50 [1, 3] [µM] | IC50 (Plasmodium falciparum; Plasmodium falciparum) [µM] | ΔTm Poly-(dA.dT)2 (Poly-(dA.dT)2) [°C] | responders at 20 mg/kg [2, 5] [%] | Survival ([2]; ip, 20 mg/kg) [days] | other results
1 | N=C(N)c1ccc(-c2cccc(-c3cn4c(n3)CCC(C(=N)N)C4)c2)cc1 (centres unmarked) (as salt: salt) [Compound 13b, 2-(4′-Amidinobiphenyl-3-yl)-5,6,7,8-tetrahydro-imidazo[1,2-a]pyridine-6-carboxamidine] |  |  |  |  |  | melting point: 236 to 238 °C
2 | N=C(NO)c1ccc(-c2ccc(-c3cn4cc(C(=N)NO)ccc4n3)o2)cc1 [Compound 5a, N-Hydroxy-2-{5-[4-(N-hydroxyamidino)-phenyl]-furan-2-yl}-imidazo[1,2-a]pyridine-6-carboxamidine] | 2.2 | 1.6 |  |  |  | in vitro activity (in words) [1]: essentially no in vitro activity; responders at 50 mg/kg ([2]; Mus musculus, 1440 h, po, 50 mg/kg, number of mice that survive and are parasite free for 60 days, read-out: Cures (converted)): 25%; in vivo effectiveness on oral dosage (in words) [2]: did not show high in vivo effectiveness; Survival ([2]; po, 50 mg/kg): >19.5 days
3 | CONC(=N)c1ccc(-c2ccc(-c3cn4cc(C(=N)NOC)ccc4n3)o2)cc1 [Compound 6, N-Methoxy-2-{5-[4-(N-methoxyamidino)-phenyl]-furan-2-yl}-imidazo[1,2-a]pyridine-6-carboxamidine] | 3 | 2.8 |  |  |  | in vitro activity (in words) [1]: essentially no in vitro activity; responders at 100 mg/kg [2, 4]: 50%; in vivo effectiveness on oral dosage (in words) [2]: did not show high in vivo effectiveness; Survival ([2]; po, 100 mg/kg): >39.5 days
4 | N=C(N)c1ccc(-c2ccc(-c3cn4c(n3)CCC(C(=N)N)C4)o2)cc1 (centres unmarked) [Compound 7, 2-[5-(4-Amidinophenyl)-furan-2-yl]-5,6,7,8-tetrahydro-imidazo[1,2-a]pyridine-6-carboxamidine] | 0.052 | 1.2 | 15.6 | 100 | >60 | responders at 5 mg/kg ([2]; Mus musculus, 1440 h, ip, 5 mg/kg, number of mice that survive and are parasite free for 60 days, read-out: Cures (converted)): 50%; Survival ([2]; ip, 5 mg/kg): >51 days
5 | N=C(N)c1ccc(-c2ccc(-c3cn4cc(C(=N)N)ccc4n3)o2)cc1 [Compound 8a, 2-[5-(4-Amidinophenyl)-furan-2-yl]-imidazo[1,2-a]pyridine-6-carboxamidine] | 0.063 | 0.014 | 26.2 | 100 | >60 | 
6 | Cc1cc(C(=N)N)cn2cc(-c3ccc(-c4ccc(C(=N)N)cc4)o3)nc12 [Compound 8b, 2-[5-(4-Amidinophenyl)-furan-2-yl]-8-methyl-imidazo[1,2-a]pyridine-6-carboxamidine] | 0.006 | 0.088 | > 27 | 100 | >60 | 
7 | N=C(NO)c1ccc(-c2ccc(-c3cn4cc(C(=N)NO)ccc4n3)cc2)cc1 [Compound 11a, N-Hydroxy-2-[4′-(N-hydroxyamidino)-biphenyl-4-yl]-imidazo[1,2-a]pyridine-6-carboxamidine] | > 166 | 0.521 |  |  |  | in vitro activity (in words) [1]: essentially no in vitro activity; responders at 75 mg/kg [2, 6]: 0%; in vivo effectiveness on oral dosage (in words) [2]: did not show high in vivo effectiveness; Survival ([2]; po, 75 mg/kg): 28 days
8 | N=C(NO)c1ccc(-c2cccc(-c3cn4cc(C(=N)NO)ccc4n3)c2)cc1 [Compound 11b, N-Hydroxy-2-[4′-(N-hydroxyamidino)-biphenyl-3-yl]-imidazo[1,2-a]pyridine-6-carboxamidine] |  |  |  |  |  | melting point: 252 to 254 °C
9 | Cc1cc(C(=N)NO)cn2cc(-c3cccc(-c4ccc(C(=N)NO)cc4)c3)nc12 [Compound 11c, N-Hydroxy-2-[4′-(N-hydroxyamidino)-biphenyl-3-yl]-8-methyl-imidazo[1,2-a]pyridine-6-carboxamidine] |  |  |  |  |  | melting point: 193 to 195 °C
10 | CONC(=N)c1ccc(-c2ccc(-c3cn4cc(C(=N)NOC)ccc4n3)cc2)cc1 [Compound 12, N-Methoxy-2-[4′-(N-methoxyamidino)-biphenyl-4-yl]-imidazo[1,2-a]pyridine-6-carboxamidine] | 5.3 | 0.395 | 0.3 |  |  | in vitro activity (in words) [1]: essentially no in vitro activity; responders at 75 mg/kg [2, 6]: 0%; in vivo effectiveness on oral dosage (in words) [2]: did not show high in vivo effectiveness; Survival ([2]; po, 75 mg/kg): 20 days
11 | N=C(N)c1ccc(-c2ccc(-c3cn4c(n3)CCC(C(=N)N)C4)cc2)cc1 (centres unmarked) [Compound 13a, 2-(4′-Amidinobiphenyl-4-yl)-5,6,7,8-tetrahydro-imidazo[1,2-a]pyridine-6-carboxamidine] | 0.116 | 0.014 | 21.3 |  |  | responders at 10 mg/kg ([2]; Mus musculus, 1440 h, ip, 10 mg/kg, number of mice that survive and are parasite free for 60 days, read-out: Cures (converted)): 75%; Survival ([2]; ip, 10 mg/kg): >51.5 days
12 | N=C(N)c1ccc(-c2cccc(-c3cn4c(n3)CCC(C(=N)N)C4)c2)cc1 (centres unmarked) [Compound 13b, 2-(4′-Amidinobiphenyl-3-yl)-5,6,7,8-tetrahydro-imidazo[1,2-a]pyridine-6-carboxamidine] | 0.226 | 0.086 | 19.1 |  |  | 
13 | N=C(N)c1ccc(-c2ccc(-c3cn4cc(C(=N)N)ccc4n3)cc2)cc1 [Compound 14a, 2-(4′-Amidinobiphenyl-4-yl)-imidazo[1,2-a]pyridine-6-carboxamidine] | 0.001 | 0.043 | 24.2 | 100 | >60 | 
14 | N=C(N)c1ccc(-c2cccc(-c3cn4cc(C(=N)N)ccc4n3)c2)cc1 [Compound 14b, 2-(4′-Amidinobiphenyl-3-yl)-imidazo[1,2-a]pyridine-6-carboxamidine] | 0.022 | 0.107 | > 27 | 100 | >60 | 
15 | Cc1cc(C(=N)N)cn2cc(-c3cccc(-c4ccc(C(=N)N)cc4)c3)nc12 [Compound 14c, 2-(4′-Amidinobiphenyl-3-yl)-8-methyl-imidazo[1,2-a]pyridine-6-carboxamidine] | 0.049 | 0.086 | > 27 | 75 | >50 | 
16 | N=C(N)c1ccc(-c2cn3c(n2)CCC(c2ccc(C(=N)N)cc2)C3)cc1 (centres unmarked) [Compound 18] |  |  |  |  |  | IC50 [1, 7]: 0.014 µM; IC50 (Plasmodium falciparum): 0.085 µM
17 | N=C(N)c1ccc(-c2ccc3nc(-c4ccc(C(=N)N)cc4)cn3c2)cc1 [Compound 19] |  |  |  |  |  | IC50 [1, 7]: 0.007 µM; IC50 (Plasmodium falciparum): 0.092 µM
18 | CONC(=N)c1ccc(-c2ccc(-c3ccc(C(=N)NOC)cc3)o2)cc1 [Compound IIIa, 2,5-Bis[4-(methoxyamidino)phenyl]furan, reference compound] | 0.0045 | 0.0155 | 25 |  |  | responders at 100 mg/kg [2, 4]: 100%; Survival ([2]; po, 100 mg/kg): >60 days
19 | N=C(N)c1ccc(-c2ccc(-c3ccc(C(=N)N)cc3)o2)cc1 [Furamidine(IIa), 2,5-Bis(4-amidinophenyl)furan, reference compound] |  |  |  |  | 52.5 | IC50 ([1]; Trypanosoma brucei, RHODESIENSE): 14.6 µM; responders at 20 mg/kg ([2]; Mus musculus, ip, 1440 h, read-out: Cures): 0%
20 | N=C(N)c1ccc(OCCCCCOc2ccc(C(=N)N)cc2)cc1 [Pentamidine(I), Pentamidine, reference compound] |  |  | 12 | 0 | 40.8 | 

— patent US7432278B2, “Dicationic imidazo[1,2-a]pyridines and 5,6,7,8-tetrahydro-imidazo[1,2-a]pyridines as antiprotozoal agents” (The University of North Carolina at Chapel Hill, priority 2004, dated 2008)
